Like-named read-outs stand apart in the source and are kept apart here.
Legend:
[1] = In vivo metabolism study (% parent in brain and plasma by HPLC); details: for Brain (% parent) 10 min pi / Brain (% parent) 30 min pi / Brain (% parent) 60 min pi: rat brain; for Brain (% parent) 10 min pi / Plasma (% parent) 10 min pi: 10 min post injection; for Brain (% parent) 30 min pi / Plasma (% parent) 30 min pi: 30 min post injection; for Brain (% parent) 60 min pi / Plasma (% parent) 60 min pi: 60 min post injection; for Plasma (% parent) 10 min pi / Plasma (% parent) 30 min pi / Plasma (% parent) 60 min pi: rat plasma
Procedure: The amount of brain or plasma activity that was due to parent test compound was tested up to 1 hour post-administration.
Adult male Wistar rats (150-200 g) were injected with approximately 20 MBq of test compound. Brain and plasma samples were analysed by HPLC at 10, 30 and 60 minutes pi.

[2] = molecular target: T1, PBR (Rattus norvegicus, UniProt P16257); assay: In vivo blocking assay (biodistribution after pre-administration of PK11195 or non-radioactive analogue); parameters: species or system Wistar rats; details: 30 min after injection; for Blood (% of vehicle), PK11195 block / Lungs (% of vehicle), PK11195 block / Muscle (% of vehicle), PK11195 block / Olfactory bulb uptake (% of vehicle), PK11195 block / Striata uptake (% of vehicle), PK11195 block: PK11195 3 mg/kg 5 min before tracer; for Blood (% of vehicle), Non-radioactive Analogue block / Lungs (% of vehicle), Non-radioactive Analogue block / Muscle (% of vehicle), Non-radioactive Analogue block / Olfactory bulb uptake (% of vehicle), Non-radioactive Analogue block / Striata uptake (% of vehicle), Non-radioactive Analogue block: non-radioactive analogue 3 mg/kg 5 min before tracer
T1 construct: Various tissues including brain stem and olfactory bulb were removed from the animals; from tissue; host or cells: Wistar rat, in vivo tissues (A7); frozen sections of brain stem and olfactory bulb (A8)
Procedure: The in vivo biodistributions of the PET tracer of the invention compared with its associated racemate were tested after pre-administration of their respective non-radioactive analogues, or pre-administration of the known PBR-specific ligand, PK11195.
PK11195 or a non-radioactive analogue (both at 3 mg/kg) was administered 5 min before the radiolabelled test compound.

[3] = molecular target: T2, Wistar rat heart PBR (Rattus norvegicus, UniProt P16257); assay: In vitro potency assay, competition binding against [3H]PK-11195, rat heart PBR
T2 construct: from tissue; host or cells: Wistar rat heart
Procedure: (§1) Affinity for PBR was screened using a method adapted from Le Fur et al (Life Sci. 1983; USA 33: 449-57). Non-radioactive analogues of the PET tracer of the invention and the associated racemate were tested. Each test compound (dissolved in 50 mM Tris-HCl, pH 7.4, 10 mM MgCl2 containing 1% DMSO) competed for binding to either Wistar rat heart PBR or human PBR against 0.3 nM [^3H] PK-11195. The reaction was carried out in 50 mM Tris-HCl, pH 7.4 10 mM MgCl2 for 15 minutes at 25° C.

[4] = molecular target: human PBR (Homo sapiens, UniProt P30536); assay: In vitro potency assay, competition binding against [3H]PK-11195, human PBR
Sequence of human PBR (P30536 whole entry): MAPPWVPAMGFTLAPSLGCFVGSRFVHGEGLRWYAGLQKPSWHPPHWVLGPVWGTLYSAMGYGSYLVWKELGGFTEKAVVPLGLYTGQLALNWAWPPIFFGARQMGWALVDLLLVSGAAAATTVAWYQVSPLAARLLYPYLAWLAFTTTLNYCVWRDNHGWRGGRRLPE
Procedure: as §1

[5] = molecular target: T1, PBR; assay: Facial nerve axotomy model of inflammation, in vitro autoradiography of tissue sections; assay type: binding, Wistar rats; details: for Naïve brain stem % specific binding, Unlabelled ligand / Olfactory bulb % specific binding, Unlabelled ligand / FNA brain stem % specific binding, Unlabelled ligand: blocked with non-radioactive PET tracer at 1 μM; for Naïve brain stem % specific binding, PK11195 / Olfactory bulb % specific binding, PK11195 / FNA brain stem % specific binding, PK11195: blocked with non-radioactive PK11195 at 1 μM; for FNA brain stem % specific binding, Unlabelled ligand / FNA brain stem % specific binding, PK11195: facial nerve axotomy
Procedure: Binding to a focal site of neuroinflammation was tested by autoradiography.
Male Wistar rats (200-300 g) were either used naïve, or underwent a facial nerve axotomy according to the procedure described by Graeber and Kreutzberg (J Neurocytol 1986; 15: 363-373). Various tissues including brain stem and olfactory bulb were removed from the animals and rapidly frozen in isopentane then stored at −70° C. until use. Tissues were sectioned (12 μm) and thaw-mounted onto Superfrost Plus slides. Slides were stored at −70° C. until use.
The slides were air dried prior to pre-incubation in Tris-HCl buffer (170 mM, pH 7.4) for 5 min at room temperature. 1000-fold excess of non-radioactive PK11195 at 1 μM, or non-radioactive PET tracer of the invention at 1 μM was added prior to incubation with Tris-HCl buffer (170 mM, pH 7.4) containing […] of test compound for 60 minutes. The reaction was then terminated by rinsing the sections two times for 5 mins each in ice-cold buffer (Tris-HCl, 170 mM, pH 7.4) and then the slides were dipped briefly in distilled water to rinse. Next the slides were dried in air and exposed to x-ray film. When exposing to x-ray film, a reference standard was included, for in vitro autoradiography a reference sample (20μ) was taken from the solution and placed on filter paper (taped onto a glass) and exposed together with the sections. The film was exposed for 24 hours and the data were analysed by drawing regions of interest around the specific anatomic structures as well as around the blocked samples, references and background using MCID software using a density gradient scale as a calibration curve adjusted to the reference sample.

[6] = In vivo biodistribution; details: for OB:Str 30 min: olfactory bulb to striata ratio; for OB:Str 30 min / OB 30 min: 30 min after injection; for OB 30 min: olfactory bulb, i.v.; for OB 30 min / Brain 2 min: rat; for Brain 2 min: i.v. tail vein, 2 min after injection
Procedure: Adult male Wistar rats (200-300 g) were injected with 1-3 MBq of test compound via the lateral tail vein. At 2, 10, 30 or 60 min (n=3) after injection, rats were euthanised and tissues or fluids were sampled for radioactive measurement on a gamma counter.

[7] = In vitro chiral stability assay in rat liver S9 fraction; assay type: in vitro ADME; details: non-radioactive; 37° C., 4 hours; chiral HPLC
Procedure: (§2) The non-radioactive PET tracer of the invention obtained according to Example 2 was incubated (37° C.) in human plasma or in rat liver S9 fraction up to 4 hours. The enantiomers were extracted from the biological material by precipitation of proteins. The solid precipitate was separated from the liquid phase, which was evaporated to dryness. The dry residue was dissolved in acetonitrile.
(§3) A Dionex Ultimate 3000 HPLC system consisting of two pumps (micro pump LPG-3000 and Ultimate 3000 pump), a UV/visible detector, an auto sampler and two switching valves was applied in this study. One switching valve was connecting the two pumps and the auto sampler. This set-up made it possible to use either of the pumps to inject into the column. The pump used for injection was connected to the SPE column only. After the injection and elution the SPE column was washed using the injection pump. The system was made ready for a new injection while the chiral analysis was ongoing.
(§4) The other switching valve connected the analytical column and the SPE column. […]
(§5) Elution from the SPE column and separation: The elution started using mobile phase mixture of 10% MeCN and 90% 10 mM ammonium acetate. […] The analytical column was washed for 3 min using 70% MeCN/MeOH and then stabilized at 10% MeCN/MeOH to make the separation system ready for the next injection. […]

[8] = In vitro chiral stability assay in human plasma; assay type: in vitro ADME; details: non-radioactive; 37° C., 4 hours; chiral HPLC
Procedure: as §2, §3, §4, §5

[9] = non-radioactive analogues tested, against 0.3 nM [3H]PK-11195, 15 minutes at 25° C., read-out: Rat Heart Ki
[10] = non-radioactive analogues tested, against 0.3 nM [3H]PK-11195, 15 minutes at 25° C., read-out: Human Ki

Compound | Brain (% parent) 10 min pi [1] | Brain (% parent) 30 min pi [1] | Brain (% parent) 60 min pi [1] | Plasma (% parent) 10 min pi [1] | Plasma (% parent) 30 min pi [1] | Plasma (% parent) 60 min pi [1] | Blood (% of vehicle), PK11195 block [2] | Lungs (% of vehicle), PK11195 block [2] | Muscle (% of vehicle), PK11195 block [2] | Olfactory bulb uptake (% of vehicle), PK11195 block [2] | Striata uptake (% of vehicle), PK11195 block [2] | Blood (% of vehicle), Non-radioactive Analogue block [2] | Lungs (% of vehicle), Non-radioactive Analogue block [2] | Muscle (% of vehicle), Non-radioactive Analogue block [2] | Olfactory bulb uptake (% of vehicle), Non-radioactive Analogue block [2] | Striata uptake (% of vehicle), Non-radioactive Analogue block [2] | Naïve brain stem % specific binding, Unlabelled ligand [5] | OB:Str 30 min [6] | OB 30 min [6] | Brain 2 min [6] | also measured
CCN(CC)C(=O)C1CCCc2c1c1c(OC)cccc1n2CC[18F] (racemic) [Racemate] | 100 ± 0 % parent | 97 ± 1 % parent | 91 ± 2 % parent | 81 ± 4 % parent | 49 ± 12 % parent | 28 ± 1 % parent | 247 % of vehicle | 13 % of vehicle | 90 % of vehicle | 37 % of vehicle | 114 % of vehicle | 289 % of vehicle | 11 % of vehicle | 140 % of vehicle | 59 % of vehicle | 124 % of vehicle | 21 % specific binding | 3.0 | 0.36 % ID/g | 0.52 % ID/g | Ki [3]: 1.47 nM; Ki [4]: 11.5 nM; Olfactory bulb % specific binding, Unlabelled ligand [5]: 59 % specific binding; Naïve brain stem % specific binding, PK11195 [5]: 13 % specific binding; Olfactory bulb % specific binding, PK11195 [5]: 67 % specific binding; FNA brain stem % specific binding, Unlabelled ligand [5]: 72 % specific binding; FNA brain stem % specific binding, PK11195 [5]: 69 % specific binding
CCN(CC)C(=O)[C@H]1CCCc2c1c1c(OC)cccc1n2CC[18F] [PET Tracer of Invention] | 98 ± 2 % parent | 96 ± 2 % parent | 94 ± 2 % parent | 70 ± 18 % parent | 41 ± 16 % parent | 21 ± 5 % parent | 289 % of vehicle | 14 % of vehicle | 131 % of vehicle | 43 % of vehicle | 117 % of vehicle | 253 % of vehicle | 12 % of vehicle | 143 % of vehicle | 37 % of vehicle | 114 % of vehicle | 70 % specific binding | 3.2 | 0.45 % ID/g | 0.53 % ID/g | racemisation after incubation in rat liver S9 fraction [7]: did not racemise; racemisation after incubation in human plasma [8]: No racemisation was observed; Ki [3, 9]: 0.87 nM; Ki [4, 10]: 9.17 nM; Olfactory bulb % specific binding, Unlabelled ligand [5]: 77 % specific binding; Naïve brain stem % specific binding, PK11195 [5]: 70 % specific binding; Olfactory bulb % specific binding, PK11195 [5]: 75 % specific binding; FNA brain stem % specific binding, Unlabelled ligand [5]: 86 % specific binding; FNA brain stem % specific binding, PK11195 [5]: 86 % specific binding
CCN(CC)C(=O)[C@@H]1CCCc2c1c1c(OC)cccc1n2CC[18F] [Alternative Enantiomer] |  |  |  |  |  |  |  |  |  |  |  |  |  |  |  |  |  | 2.9 | 0.23 % ID/g | 0.53 % ID/g | Ki [3, 9]: 3.87 nM; Ki [4, 10]: 14.1 nM
